Experimental data from PubChem BioAssay (NCI).
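48-hour exposure; five concentrations; linearly interpolated endpoints. TGI denotes the concentration required for complete inhibition of growth.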

What was measured:
Test in all cases: NCI tumour cell line growth inhibition, 48 h
[1] = test system: OVCAR-3 ovarian
[2] = test system: CCRF-CEM leukemia
[3] = test system: TK-10 renal
[4] = test system: MOLT-4 leukemia
[5] = test system: UACC-62 melanoma
[6] = test system: SF-295 CNS
[7] = test system: COLO 205 colon
[8] = test system: UACC-257 melanoma
[9] = test system: NCI-H522 lung
[10] = test system: HOP-18 NSCLC
[11] = test system: SW-620 colon
[12] = test system: SK-MEL-5 melanoma
[13] = test system: M14 melanoma
[14] = test system: DMS 114 small cell lung
[15] = test system: SK-MEL-2 melanoma
[16] = test system: LXFL 529 NSCLC
[17] = test system: M19-MEL melanoma
[18] = test system: RXF-631 renal
[19] = test system: KM20L2 colon
[20] = test system: SNB-19 CNS
[21] = test system: SNB-78 CNS
[22] = test system: HCC-2998 colon
[23] = test system: DLD-1 colon
[24] = test system: HCT-15 colon
[25] = test system: 786-0 renal
[26] = test system: OVCAR-8 ovarian
[27] = test system: SN12C renal
[28] = test system: CAKI-1 renal
[29] = test system: HOP-92 NSCLC
[30] = test system: SNB-75 CNS
[31] = test system: SK-MEL-28 melanoma
[32] = test system: SK-OV-3 ovarian
[33] = test system: A549 NSCLC
[34] = test system: XF 498 CNS
[35] = test system: RPMI-8226 leukemia
[36] = test system: A498 renal
[37] = test system: NCI-H460 lung
[38] = test system: ACHN renal
[39] = test system: SF-268 CNS
[40] = test system: UO-31 renal
[41] = test system: K-562 leukemia
[42] = test system: HT29 colon
[43] = test system: IGROV1 ovarian
[44] = test system: HCT-116 colon
[45] = test system: U251 CNS
[46] = test system: HOP-62 NSCLC
[47] = test system: HL-60(TB) leukemia
[48] = test system: KM12 colon
[49] = test system: OVCAR-5 ovarian
[50] = test system: SF-539 CNS
[51] = test system: DMS 273 small cell lung
[52] = test system: NCI-H23 lung
[53] = test system: NCI-H226 lung
[54] = test system: OVCAR-4 ovarian
[55] = test system: MALME-3M melanoma
[56] = test system: EKVX NSCLC
[57] = test system: P388 leukemia
[58] = test system: RXF 393 renal
[59] = test system: SN12K1 renal
[60] = test system: NCI/ADR-RES ovarian
[61] = test system: P388/ADR leukemia
[62] = test system: LOX IMVI melanoma
[63] = test system: MCF7 breast

## O=c1c2ccccc2nc(-c2ccccc2)n1NC1OC(CO)C(O)C(O)C1O (stereo not drawn)
[1]
  TGI: > 100 µM
[2]
  TGI: > 100 µM
[3]
  TGI: > 100 µM
[4]
  TGI: > 100 µM
[5]
  TGI: > 100 µM
[6]
  TGI: > 100 µM
[7]
  TGI: > 100 µM
[8]
  TGI: > 100 µM
[9]
  TGI: > 100 µM
[10]
  TGI: > 100 µM
[11]
  TGI: > 100 µM
[12]
  TGI: > 100 µM
[13]
  TGI: > 100 µM
[14]
  TGI: > 100 µM
[15]
  TGI: > 100 µM
[16]
  TGI: > 100 µM
[17]
  TGI: > 100 µM
[18]
  TGI: > 100 µM
[19]
  TGI: > 100 µM
[20]
  TGI: > 100 µM
[21]
  TGI: > 100 µM
[22]
  TGI: > 100 µM
[23]
  TGI: > 100 µM
[24]
  TGI: > 100 µM
[25]
  TGI: > 100 µM
[26]
  TGI: > 100 µM
[27]
  TGI: > 100 µM
[28]
  TGI: > 100 µM
[29]
  TGI: > 100 µM
[30]
  TGI: > 100 µM
[31]
  TGI: > 100 µM
[32]
  TGI: > 100 µM
[33]
  TGI: > 100 µM
[34]
  TGI: > 100 µM
[35]
  TGI: > 100 µM
[36]
  TGI: > 100 µM
[37]
  TGI: > 100 µM
[38]
  TGI: > 100 µM
[39]
  TGI: > 100 µM
[40]
  TGI: > 100 µM
[41]
  TGI: > 100 µM
[42]
  TGI: > 100 µM
[43]
  TGI: > 100 µM
[44]
  TGI: > 100 µM
[45]
  TGI: > 100 µM
[46]
  TGI: > 100 µM
[47]
  TGI: > 100 µM
[48]
  TGI: > 100 µM
[49]
  TGI: > 100 µM
[50]
  TGI: > 100 µM
[51]
  TGI: > 100 µM
[52]
  TGI: > 100 µM
[53]
  TGI: > 100 µM
[54]
  TGI: > 100 µM
[55]
  TGI: > 100 µM
[56]
  TGI: > 100 µM

## COc1ccccc1Cc1nc(-c2ccccc2)nn(C2OC(COC(C)=O)C(OC(C)=O)C(OC(C)=O)C2OC(C)=O)c1=S (stereo not drawn)
[1]
  TGI: > 85.3 µM
[2]
  TGI: > 100 µM
[4]
  TGI: > 100 µM
[5]
  TGI: > 80.3 µM
[6]
  TGI: > 69.4 µM
[7]
  TGI: > 86.9 µM
[57]
  TGI: > 100 µM
[8]
  TGI: > 100 µM
[9]
  TGI: 36.4 µM
[10]
  TGI: 97.7 µM
[11]
  TGI: > 100 µM
[12]
  TGI: 26.1 µM
[14]
  TGI: > 100 µM
[15]
  TGI: 41.3 µM
[17]
  TGI: > 100 µM
[19]
  TGI: > 100 µM
[20]
  TGI: > 52.7 µM
[58]
  TGI: 31.9 µM
[21]
  TGI: > 70.1 µM
[22]
  TGI: > 43.2 µM
[23]
  TGI: > 100 µM
[24]
  TGI: 84.6 µM
[26]
  TGI: > 100 µM
[27]
  TGI: 32.2 µM
[28]
  TGI: 32.9 µM
[29]
  TGI: 24.4 µM
[30]
  TGI: 15.4 µM
[31]
  TGI: > 100 µM
[59]
  TGI: > 53.4 µM
[32]
  TGI: > 67.2 µM
[33]
  TGI: > 100 µM
[34]
  TGI: 6.49 µM
[35]
  TGI: 80.6 µM
[36]
  TGI: > 56.2 µM
[37]
  TGI: > 73.5 µM
[60]
  TGI: > 100 µM
[39]
  TGI: 60.4 µM
[40]
  TGI: > 86 µM
[41]
  TGI: > 100 µM
[61]
  TGI: > 100 µM
[42]
  TGI: > 100 µM
[43]
  TGI: > 93.9 µM
[44]
  TGI: > 45.9 µM
[45]
  TGI: > 31.6 µM
[46]
  TGI: 38.3 µM
[47]
  TGI: > 100 µM
[48]
  TGI: > 100 µM
[49]
  TGI: > 100 µM
[50]
  TGI: 33.6 µM
[51]
  TGI: > 79.6 µM
[52]
  TGI: 42.6 µM
[53]
  TGI: > 95.7 µM
[62]
  TGI: > 100 µM
[63]
  TGI: 33.9 µM
[54]
  TGI: 8.58 µM
[55]
  TGI: 72.3 µM
[56]
  TGI: > 86.4 µM
